Results as given in ChEMBL document CHEMBL3808297, “The synthesis and synergistic antifungal effects of chalcones against drug resistant Candida albicans” (2016).
≈ marks a conversion by molar mass, not a printed value.

How the values were obtained:
Type in all cases: functional
Candida albicans [1] = test: Antifungal activity against fluconazole-resistant Candida albicans clinical isolate 103 by microbroth dilution method
Candida albicans [2] = test: Antifungal activity against fluconazole-resistant Candida albicans clinical isolate 103 by microbroth dilution method in presence of 8 ug/ml fluconazole
Candida albicans [3] = test: Antifungal activity against fluconazole-resistant Candida albicans clinical isolate 103 assessed as fractional inhibitory concentration index by microbroth dilution method in presence of 8 ug/ml fluconazole

Row | Structure (SMILES) | MIC80 (Candida albicans [1]) [µg/mL] | MIC80 (Candida albicans [2]) [µg/mL] | fractional inhibitory concentration index (FICI) (Candida albicans [3])
1 | O=C(/C=C/c1cccs1)c1ccccc1O | > 64 | > 64 | >1.06
2 | COc1cc(/C=C/C(=O)c2ccccc2O)ccc1O | > 64 | > 64 | >1.06
3 | O=C(/C=C/c1ccc(F)cc1)c1ccccc1O | > 64 | 32 | 0.315
4 | COc1ccc(/C=C/C(=O)c2ccccc2F)cc1 | > 64 | 64 | 0.506
5 | COc1ccc(/C=C/C(=O)c2ccc(O)cc2)cc1OC | > 64 | > 64 | >1.06
6 | O=C(/C=C/c1ccc(C(F)(F)F)cc1)c1ccccc1O | > 64 | 64 | 0.506
7 | O=C(/C=C/c1ccc2c(c1)OCO2)c1ccccc1O | > 64 | 32 | 0.315
8 | COc1ccc(C(=O)/C=C/c2ccccc2)c(O)c1 | > 64 | 1 | 
9 | COc1cccc(O)c1C(=O)/C=C/c1ccccc1 | > 64 | 16 | 0.188
10 | COc1cccc(O)c1C(=O)/C=C/c1ccc2c(c1)OCO2 | > 64 | 4 | 0.094
11 | COc1cccc(O)c1C(=O)/C=C/c1ccco1 | > 64 | 4 | 0.094
12 | O=C(/C=C/c1ccc(Br)cc1)c1c(O)cccc1O | > 64 | 16 | 0.188
13 | COc1cccc(O)c1C(=O)/C=C/c1cccnc1 | > 64 | 8 | 0.125
14 | O=C(/C=C/c1ccc2c(c1)OCO2)c1ccccc1Cl | > 64 | 32 | 0.315
15 | CN(C)c1ccc(/C=C/C(=O)c2ccccc2F)cc1 | > 64 | 8 | 0.125
16 | COc1ccc(/C=C/C(=O)c2ccccc2N)cc1OC | > 64 | 32 | 0.315
17 | O=C(/C=C/c1ccccc1)c1cc(Br)c(O)c(Br)c1O | 64 (≈ 161 µM) | 4 | 0.125
18 | Nc1ccccc1C(=O)/C=C/c1ccco1 | > 64 | > 64 | >1.06
19 | O=C(/C=C/c1ccc(CO)o1)c1ccccc1O | > 64 | 8 | 0.125
20 | COc1cccc(O)c1C(=O)/C=C/c1cccs1 | > 64 | 4 | 0.094
21 | COc1ccc(/C=C/C(=O)c2ccccc2Cl)cc1OC | > 64 | > 64 | >1.06
22 | COc1cccc(O)c1C(=O)/C=C/c1ccc(CO)o1 | > 64 | 8 | 0.125
23 | O=C(/C=C/c1ccco1)c1ccccc1O | > 64 | 64 | 0.506
24 | O=C(/C=C/c1ccccc1)c1ccc(O)cc1 [4'-HYDROXYCHALCONE] | > 64 | > 64 | >1.06
25 | O=c1cc(-c2ccccc2)oc2cc(O)c(O)c(O)c12 [BAICALEIN] | 32 (≈ 118 µM) | 4 | 0.188
